Data reported in patent publication US9334231B2, “Photoreactive synthetic regulator of protein function and methods of use thereof” (The Regents of the University of California, priority 2008, dated 2016).
Counter-ions that a name gives are not always drawn.

Key:
[1] = biological target: T1, Sh-IR internal TEA binding site (Drosophila melanogaster, UniProt P08510, DEL6-46); test: Inside-out patches from HEK293 cells expressing Sh-IR, dose-response under 380 and 500 nm light; format: cell-based; conditions: inside-out patch
T1 construct: expressed in transfected cells; host or cells: HEK293 / HEK293T cells, calcium phosphate transfection
T1 sequence (P08510 with tags, fused parts or gaps DEL6-46): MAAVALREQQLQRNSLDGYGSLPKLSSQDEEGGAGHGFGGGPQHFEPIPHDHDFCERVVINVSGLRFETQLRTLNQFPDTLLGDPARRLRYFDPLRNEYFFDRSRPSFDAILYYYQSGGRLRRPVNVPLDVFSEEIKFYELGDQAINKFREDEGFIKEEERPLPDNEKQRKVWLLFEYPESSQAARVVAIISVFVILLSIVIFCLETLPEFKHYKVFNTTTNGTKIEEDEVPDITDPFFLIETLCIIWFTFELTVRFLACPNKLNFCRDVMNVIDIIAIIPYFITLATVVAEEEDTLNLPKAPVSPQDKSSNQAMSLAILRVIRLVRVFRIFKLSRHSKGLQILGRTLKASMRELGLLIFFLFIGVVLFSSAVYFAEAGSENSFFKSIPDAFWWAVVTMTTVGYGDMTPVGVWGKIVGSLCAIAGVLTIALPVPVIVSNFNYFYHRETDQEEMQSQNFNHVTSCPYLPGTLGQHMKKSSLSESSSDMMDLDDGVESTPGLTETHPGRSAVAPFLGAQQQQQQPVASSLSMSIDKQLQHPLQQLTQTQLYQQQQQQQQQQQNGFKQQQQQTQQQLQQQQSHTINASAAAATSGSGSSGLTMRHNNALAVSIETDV

[2] = illumination at 420 nm
[3] = tested on: endogenous K+ channels in dissociated hippocampal neurons; conditions: preincubation at 300 nM; cited from earlier work
[4] = biological target: T2, Shaker IR channels (Sh-IR) (Drosophila melanogaster, UniProt P08510, DEL6-46); test: Whole-cell patch clamp of HEK293 cells expressing Shaker IR after AAQ/EtAcAQ/AcAQ treatment; format: cell-based; conditions: 500-nm and 380-nm light; for block of steady-state current: after blocker pre-treatment (400 uM in FIG. 2)
T2 construct: expressed in transfected cells; host or cells: HEK293 / HEK293T cells, calcium phosphate transfection
T2 sequence (P08510 other isoform, or with tags, fused parts or gaps DEL6-46): as the sequence (P08510 with tags, fused parts or gaps DEL6-46) above

Kν channels = test: Stated characteristics of exemplary synthetic regulators (channel block)
Sh-IR = biological target: T3, Sh-IR (Drosophila melanogaster, UniProt P08510, DEL6-46); test: AzoQA structure-activity screen: HEK293T cells expressing Sh-IR, applied in dark, washout, whole-cell voltage clamp; format: cell-based; conditions: for isomer preference of block: cis (380 nm) versus trans (500 nm)
T3 construct: expressed in transfected cells; host or cells: HEK293 / HEK293T cells, calcium phosphate transfection
T3 sequence (P08510 other isoform, or with tags, fused parts or gaps DEL6-46): as the sequence (P08510 with tags, fused parts or gaps DEL6-46) above
Source text: Solutions were adjusted to 300-310 mOsm.
These AzoQA's were applied in dark, which favors the trans configuration, at various concentrations to HEK293T cells expressing Sh-IR, followed by washout and whole-cell voltage clamp recording.

[5] = tested on: endogenous K+ channels in dissociated hippocampal neurons
[6] = Isomerization wavelengths of red-shifted regulator; format: physicochemical
[7] = tested on: Shaker K channel, Kν2.1, Kν3.1, Kν4.2, hippocampal Kν; test: QAQ photoswitching of voltage gated K channels (QAQ in the pipette); format: cell-based
Method: (§1) Experiments were conducted to test the effect of QAQ on various channels.
(§2) Purple light was used in all cases to relieve the block. FIG. 6 depicts a bar graph showing the quantification of photoswitching on individual channels when having 100 μM QAQ in the pipette.

[8] = tested on: native Na channels expressed in NG108-15 cells (Naν); test: QAQ photoswitching of native Na channels in NG108-15 cells; format: cell-based
Method: as §1, §2

[9] = tested on: L type and N type Ca channels (L-type Caν, Caν2.2); test: QAQ photoswitching of Ca channels; format: cell-based
Method: as §1, §2

neurons = test: Neuron firing under current clamp with QAQ; format: cell-based; conditions: progressively greater current injected
Source text: The effect of QAQ on neurons was investigated. Neuron firing was examined under current clamp, by injecting progressively greater current into the cell, under 2 different wavelengths of light. […] This is because block of Na channels dominates: when Na channels are blocked, the initial phase of the AP is blocked and neurons are silent. Again, QAQ acts like lidocaine in neurons, silencing cells under green light or in the dark.

Shaker channel = biological target: T4, Shaker channel (Drosophila melanogaster, UniProt P08510); test: QAQ membrane permeance: patch pipette versus external application, HEK cells expressing Shaker channel; format: cell-based
T4 construct: expressed in transfected cells; host or cells: HEK cells
T4 sequence (P08510 whole entry): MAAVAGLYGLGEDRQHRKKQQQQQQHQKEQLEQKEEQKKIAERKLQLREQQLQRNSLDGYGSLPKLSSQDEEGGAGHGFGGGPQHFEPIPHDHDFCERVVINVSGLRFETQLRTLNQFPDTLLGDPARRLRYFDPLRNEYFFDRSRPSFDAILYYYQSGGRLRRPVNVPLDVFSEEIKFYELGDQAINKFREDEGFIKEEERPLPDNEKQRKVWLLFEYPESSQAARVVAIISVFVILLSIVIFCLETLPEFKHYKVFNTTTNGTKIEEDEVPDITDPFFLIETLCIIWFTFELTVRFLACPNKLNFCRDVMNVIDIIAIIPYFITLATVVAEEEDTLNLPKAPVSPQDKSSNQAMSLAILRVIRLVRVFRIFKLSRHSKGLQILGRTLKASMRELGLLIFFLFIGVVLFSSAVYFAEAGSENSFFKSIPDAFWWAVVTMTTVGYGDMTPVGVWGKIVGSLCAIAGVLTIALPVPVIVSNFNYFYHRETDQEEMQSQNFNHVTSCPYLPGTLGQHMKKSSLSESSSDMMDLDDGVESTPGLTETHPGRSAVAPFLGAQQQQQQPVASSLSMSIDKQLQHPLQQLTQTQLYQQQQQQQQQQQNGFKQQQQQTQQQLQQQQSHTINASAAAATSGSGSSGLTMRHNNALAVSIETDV
Source text: The K current was observed upon a depolarization to +40 mV under purple 380 nm light.

P2X7R [10] = biological target: T5, P2X7R (Homo sapiens, UniProt Q99572); test: Loading of QAQ through P2X7R in HEK cells co-expressing Shaker channel; format: cell-based
T5 construct: expressed in transfected cells; host or cells: HEK cells, co-expressed with Shaker channel
T5 sequence (Q99572 1-595): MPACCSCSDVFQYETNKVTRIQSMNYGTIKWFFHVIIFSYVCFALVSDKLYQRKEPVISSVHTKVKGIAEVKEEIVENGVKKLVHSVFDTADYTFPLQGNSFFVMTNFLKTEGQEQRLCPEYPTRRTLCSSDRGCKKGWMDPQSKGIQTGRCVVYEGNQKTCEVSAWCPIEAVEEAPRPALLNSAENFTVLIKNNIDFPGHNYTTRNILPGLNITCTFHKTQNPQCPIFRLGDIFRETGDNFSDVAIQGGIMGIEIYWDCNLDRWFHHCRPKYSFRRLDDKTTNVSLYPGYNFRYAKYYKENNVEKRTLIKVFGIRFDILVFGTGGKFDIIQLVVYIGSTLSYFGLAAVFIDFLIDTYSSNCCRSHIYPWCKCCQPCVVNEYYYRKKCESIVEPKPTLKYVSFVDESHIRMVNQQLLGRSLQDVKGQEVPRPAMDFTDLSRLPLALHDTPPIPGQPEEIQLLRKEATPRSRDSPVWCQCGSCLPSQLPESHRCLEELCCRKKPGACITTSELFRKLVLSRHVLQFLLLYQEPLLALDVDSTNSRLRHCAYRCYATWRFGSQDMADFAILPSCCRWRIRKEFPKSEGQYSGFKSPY
Source text: (§3) Advantage was taken of the biophysical properties of certain ion channels. TRPV1 channel and the ATP gated P2X7 receptor can open a wide pore upon prolonged agonist exposure. This pore becomes then permeable to large organic cations like the local anesthetic QX314. It was investigated whether QAQ could be loaded into cells expressing either one of these two channels (P2X7R or TRPV1). If so, specific cells could be targeted with QAQ, and then excitability could be controlled with light. This concept is depicted schematically in FIG. 8.
(§4) It was first determined whether P2X7R expressed in HEK cells could be an entry route for QAQ. P2X7R was co-expressed together with Shaker channel.

TRPV1 = biological target: T6, TRPV1 (Homo sapiens, UniProt Q8NER1); test: Loading of QAQ through TRPV1 in cells co-expressing Shaker channel; format: cell-based
T6 construct: expressed in transfected cells; the context is HEK cells
T6 sequence (Q8NER1 whole entry, species assumed): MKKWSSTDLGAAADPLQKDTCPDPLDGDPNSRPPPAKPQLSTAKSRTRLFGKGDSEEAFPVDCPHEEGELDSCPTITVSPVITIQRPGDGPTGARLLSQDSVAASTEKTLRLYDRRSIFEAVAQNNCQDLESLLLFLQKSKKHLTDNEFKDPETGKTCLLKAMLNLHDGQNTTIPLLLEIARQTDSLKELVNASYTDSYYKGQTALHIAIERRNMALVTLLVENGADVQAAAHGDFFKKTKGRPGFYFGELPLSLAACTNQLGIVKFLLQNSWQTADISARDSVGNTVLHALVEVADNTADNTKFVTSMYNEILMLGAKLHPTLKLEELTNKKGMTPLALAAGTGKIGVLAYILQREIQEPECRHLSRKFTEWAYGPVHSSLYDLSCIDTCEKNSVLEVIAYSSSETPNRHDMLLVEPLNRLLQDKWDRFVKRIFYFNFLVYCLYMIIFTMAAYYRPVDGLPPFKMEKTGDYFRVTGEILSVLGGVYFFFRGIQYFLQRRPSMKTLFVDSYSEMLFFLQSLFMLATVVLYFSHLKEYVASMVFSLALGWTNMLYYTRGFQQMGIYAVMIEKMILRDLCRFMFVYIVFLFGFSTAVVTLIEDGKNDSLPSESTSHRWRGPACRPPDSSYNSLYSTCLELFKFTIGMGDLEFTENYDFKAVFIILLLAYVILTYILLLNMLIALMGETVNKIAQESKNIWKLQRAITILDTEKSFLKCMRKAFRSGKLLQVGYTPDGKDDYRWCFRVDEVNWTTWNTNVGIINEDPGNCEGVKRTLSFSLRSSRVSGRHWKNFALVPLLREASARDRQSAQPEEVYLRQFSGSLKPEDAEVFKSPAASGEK
Source text: as §3, §4

P2X7R [11] = biological target: T5, P2X7R; test: Loading of QAQ into hippocampal neurons transfected with P2X7R; format: cell-based
Source text: (§5) Hippocampal neurons were transfected with P2X7R. […] In 1 of 13 cells tested, QAQ entered a cell which was not heterologously expressing P2X7R, possibly because this cell was expressing endogenous P2X7 receptors. It was then asked whether QAQ could enter cells naturally expressing either of these channels and looked at sensory neurons. Sensory neurons are activated by sensory input and project towards the central nervous system. Sensory neurons of the trigeminal ganglia naturally express TRPV1 channels. QAQ was applied together with capsaicin on these sensory neurons in in vitro culture.

[12] = tested on: native K channels of sensory neurons naturally expressing TRPV1; test: QAQ with capsaicin on sensory neurons of the trigeminal ganglia in culture; format: cell-based; conditions: QAQ applied together with capsaicin
Source text: as §5

[13] = tested on: capsaicin-evoked nocifensive behaviors; test: Capsaicin-evoked nocifensive behaviors after hindpaw injection; format: in vivo, mouse; conditions: co-injection with capsaicin into hindpaw, 10 min, versus capsaicin alone
Method: It was shown (Example 3) that QAQ blocks capsaicin-evoked sensory neuron activation in vitro, in a light-dependent manner. It was then tested whether QAQ can block nocifensive responses in vivo, and whether this action can be regulated by light. This experiment consisted of 2 parts: (1) it was tested whether QAQ acts as an analgesic, in the absence of light. […] Injection of capsaicin into the mouse hindpaw elicits a 5-10 min bout of licking and flinching; such responses are blocked by co-application of lidocaine, morphine, and other analgesics (Binshtock et al., 2007 Nature 449:607-10). Because analgesics are molecules that alleviate pain, evaluating the analgesic properties of a new molecule requires induction of discomfort in animals. The ability of QAQ to inhibit capsaicin-evoked nocifensive behaviors was tested. Fourteen mice were used for this experiment: to one set of 7 mice, capsaicin alone was applied by injection; to a second set of 7 mice, capsaicin and QAQ were co-injected. The mice were then placed in a transparent Plexiglas chamber and behavior was video recorded for 10 min. After 10 min, mice were euthanized.

[14] = 100 μM QAQ in the pipette, purple light relieves block

## C=CC(=O)Nc1ccc(/N=N/c2ccc(NC(=O)C[N+](CC)(CC)CC)cc2)cc1 [AAQ, Acrylamide Azobenzene Quaternary ammonium]
[1]
  current block after washout with control solution: relieved within several seconds of washout
[1]; 380 nm light, n=3-5, read-out: IC50 (cis isomer)
  IC50: 64 µM
[2]
  cis isomer content: 50%
[3]
  photosensitization of endogenous K+ channels: strongly photosensitize endogenous K^+

## CC[N+](CC)(CC)CC(=O)Nc1ccc(N=Nc2ccc(NC(C)=O)cc2)cc1.O=C[O-] [AcAQ, 4-acetamido-4′-(2)-triethylammoniumacetamidoazobenzene formate]
[4]
  block of steady-state current: persistently blocked the steady-state current in a light-dependent fashion
[4]; extracellular pre-treatment
  photoswitching after pre-treatment: considerable sustained photoswitching

## CC[N+](CC)(CC)CC(=O)Nc1ccc(/N=N/c2ccc(NC(=O)c3ccccc3)cc2)cc1 [BzAQ, 4-benzamido-4′-(2)-triethylammoniumacetamidoazobenzene formate]
Kν channels
  channels blocked / selectivity: selective for Kν channels
  external or internal blocker: external blocker
  isomeric form that blocks: trans-blocker
Sh-IR; Iss relative to that under 380 nm illumination, extracellular treatment in dark
  minimal dose able to block >95% of Iss: 25 µM
[5]; 20 μM BzAQ extracellular, Iss at +30 mV compared at 380 and 500 nm
  Iss blocked: 57+/−6.6%
[5]; current clamp, cell near threshold, 500 nm light
  action potential firing: sufficient to induce action potential firing
[5]; current clamp, switched from cis to trans
  effect on cellular membrane potential: significantly depolarize the cellular membrane potential

## CCN(CC)c1ccc(/N=N/c2ccc(NC(=O)C[N+](CC)(CC)CC)cc2)cc1 [DAAQ]
Kν channels
  channels blocked / selectivity: able to block Kν channels
  external or internal blocker: external blocker
  isomeric form that blocks: trans-blocker
[6]
  wavelength of first isomeric form: 472 nm
  wavelength of second isomeric form: 550 nm

## CCC(=O)Nc1ccc(N=Nc2ccc(NC(=O)C[N+](CC)(CC)CC)cc2)cc1 [EtAcAQ]
[4]
  block of steady-state current: persistently blocked the entire steady-state current in a light-dependent fashion

## CCCc1ccc(N=Nc2ccc(NC(=O)C[N+](CC)(CC)CC)cc2)cc1.O=C[O-] [PrAQ, 4-propyl-4′-(2)-triethylammoniumacetamidoazobenzene formate]
Sh-IR; 40 nM
  block of Iss in the cis form: 50%
Sh-IR; 40 nM, 500 nm
  block by the trans isomer: without producing obvious block
Sh-IR
  isomer preference of block: preferentially blocks in the cis form

## CC[N+](CC)(CC)CC(=O)Nc1ccc(/N=N/c2ccc(NC(=O)C[N+](CC)(CC)CC)cc2)cc1 [QAQ]
Kν channels
  channels blocked / selectivity: able to block Kν, Naν, and Caν channels
  external or internal blocker: internal blocker
  isomeric form that blocks: trans-blocker
[7]
  photoregulation of K channels: photoregulate Shaker K channel and also other K channel subtypes such as Kν2, Kν3 Kν4 and native K channels in hippocampal cells
[7]; [14]
  light condition of block: the block occurred in the dark, or under 500 nm light
[8]
  photosensitization of Na channels: photosensitizes native Na channels expressed in NG108-15 cells
[8]; [14]
  light condition of block: the block occurred in the dark, or under 500 nm light
[9]
  photosensitization of Ca channels: photosensitize L type and N type Ca channels
[9]; [14]
  light condition of block: the block occurred in the dark, or under 500 nm light
neurons
  neuron firing under green light: does at best one action potential (AP), but remains silent
  neuron firing under purple light: fires normally
Shaker channel
  membrane permeance: membrane impermeant
Shaker channel; 100 μM QAQ, +40 mV, 380 nm versus green light
  photoregulation of K current, applied through the patch pipette: photoregulation of the K channel current was observed
Shaker channel; external application
  photoregulation of K current, externally applied: no photoregulation of K current was seen
P2X7R [10]; P2X7R co-expressed with Shaker, ATP coapplied
  loading into HEK cells: could be loaded in the HEK cell only if P2X7 channels were expressed and ATP, the agonist for the P2X7 channels, was coapplied
P2X7R [10]; application of 5 min with ATP
  photoswitching of Shaker channels current: very good photoswitching
TRPV1; TRPV1 co-expressed with Shaker, capsaicin
  loading into cells: could be loaded into cells co-expressing TRPV1 and Shaker channel in the presence of the TRPV1 agonist capsaicin
TRPV1; loaded in the presence of capsaicin
  photoswitching: photoswitching could be effected
P2X7R [11]; ATP
  loading into hippocampal neurons: could be loaded into cells only when P2X7 receptors were expressed
P2X7R [11]; cells tested
  cells not heterologously expressing P2X7R that QAQ entered: 1 of 13
[12]
  photoswitching of native K channels: very robust photoswitching of native K channels
[13]
  number of licks: reduced
  time spent paw lifting: reduced

## C=CCCC(=O)Nc1ccc(N=Nc2ccc(NC(=O)C[N+](CC)(CC)CC)cc2)cc1.O=C[O-] [compound 10, 4-(pent-4-en)amido-4′-(2)-triethylammoniumacetamidoazobenzene formate]
Sh-IR
  isomer preference of block: essentially equal block in both cis and trans forms
